Entries after “also recorded” stand apart in the source; their conditions may differ.
Assays:
Ptpn11^D61G/+ mice = assay: Heart tissue immunoblot for SERCA2A, Troponin I, Troponin T; format: in vivo; conditions: postnatal dasatinib; NS mice
Text: Representative traces of cardiomyocyte dynamics for calcium transient traces (top) and their corresponding sarcomere leng shortening traces (bottom). FIG. 16b is a graph showing a summary of the data of relative calcium release (Rmag Ca^2+). FIG. 16c is a graph showing the fraction of sarcomere shortening (n=111˜162 cells from 3 mice for each group). FIG. 16d is an image showing heart tissue immunoblotted with anti-SERCA2A, Troponin I (tTnI), Troponin T (tTnT) and Tubulin antibodies. […] FIG. 16e is a graph showing SERCA2A expression. FIG. 16f is a graph showing Troponin I expression. FIG. 16g is a graph showing Troponin T. Expression was statistically assessed after normalization with tubulin (n=6 for each group).
Immunoprecipitation and Immunoblotting—Cells or heart tissue were lysed on ice in lysis buffer (25 mM Tris-HCl, pH 7.4, 136 mM NaCl, 1 mM CaCl2, 1 mM MgCl2, 1% Nonidet P-40, 1 mM Na3VO4, 10 mM NaF, 1 mM benzamidine, 1 mM PMSF, 1 μg/ml pepstatin A, 5 μg/ml aprotinin, and 5 μg/ml leupeptin). Cell or tissue lysates were incubated at 4° C. for 30 min and clarified by centrifugation at 14,000 rpm at 4° C. for 10 min. Protein concentration was determined using the BCA reagent according to the manufacturer's instructions (Pierce). For immunoprecipitations, 500 μg of lysate was incubated with 1 μg of indicated antibodies at 4° C. for overnight. […]

tumor incidence = conditions: mice; cited from earlier work
[1] = tested on: WT and Ptpn11^D61G/+ mice; assay: Echocardiography, postnatal dasatinib treatment; format: in vivo; conditions: for % EF (ejection fraction) / % FS (fractional shortening) / IVS, d (Intraventricular septum wall thickness, diastole) / IVS, s (Intraventricular septum wall thickness, systole) / LV vol, d (left ventricle volume, diastole) / LV vol, s (left ventricle volume, systole) / LVID, d (left ventricular internal dimension, diastole) / LVID, s (left ventricular internal dimension, systole) / LVPW, d (left ventricular posterior wall thickness, diastole) / LVPW, s (left ventricular posterior wall thickness, systole): n = 6, Mean ± SEM
Description: Dasatinib Treatment—N-(2-chloro-6-methylphenyl)-2-[[6-[4-(2-hydroxyethyl)-1-piperazinyl]-2-methyl-4-pyrimidinyl]amino]-5-thiazole carboxamide monohydrate (dasatinib, BMS-354825) was purchased from Biovision. dasatinib was dissolved in DMSO at a concentration of 10 mg/ml, then resuspended in vehicle (1× Dulbecco's PBS) at a concentration of 200 μg/ml. […] And then, injection was continued or discontinued for 2 weeks, Vehicle-injected mice served as control, Body weight was measured weekly and echocardiography was performed at P42 (6-weeks) and P56 (8-weeks).
(§1) Vehicle-injected mice served as control.

[2] = tested on: c-Src and PZR tyrosyl phosphorylation in the heart of NS mice; assay: Phosphorylation in heart tissue after i.p. dasatinib, immunoblot; format: in vivo
Description: Male Ptpn11D61G/+ mice were injected i.p. with dasatinib at the indicated dose or DMSO control, 24h later mice were sacrificed, heart tissue harvested and immunoblotted using the indicated antibodies.
FIG. 13i is an image showing heart tissue immunoblotted with anti-Shp2, p-ERK1/2, ERK1/2, p-Src (Y416), Src, p-PZR (Y263) and PZR antibodies. […] Heart tissue was isolated after 18 hr and tissue lysates were immunoblotted.
FIG. 18a is an image showing heart tissue immunoblotted with p-Raf1 (Y341), Raf1, p-MEK1/2, MEK1/2, p-INK, INK, p-p38, p38, p-Akt (S473) and Akt antibodies. Heart tissue was isolated after 18 hr and tissue lysates were immunoblotted.

[3] = tested on: WT and Ptpn11^D61G/+ mice; assay: Invasive hemodynamic study, postnatal dasatinib treatment; format: in vivo
Description: as §1
Hemodynamic Study—Anesthesia was induced by intraperitoneal injection of ketamine (100 mg/kg) and xylazine (5 mg/kg). The animal was placed on a warm pad and an incision was made on the neck. The right side carotid artery was exposed and a 1.9-French transducer-tipped catheter (Millar Inc., Houston, Tex.) was inserted into the artery, and then was advanced into left ventricle. Left ventricular pressures including high-fidelity positive, negative dp/dt and heart rate were measured under basal conditions. Data were recorded and analyzed by using LabChart software.

[4] = postnatal 0.1 mg/kg/day i.p. P10 to P42, then discontinued 2 weeks, Ptpn11D61G/+ mice, P56
[5] = postnatal 0.1 mg/kg/day i.p. P10 to P42, then discontinued 2 weeks, WT mice, P56
[6] = postnatal 0.1 mg/kg/day i.p. from P10, Ptpn11D61G/+ mice, P42
[7] = postnatal 0.1 mg/kg/day i.p. from P10, WT mice, P42
[8] = Ptpn11D61G/+ mice, P56, n = 9, Mean ± SEM
[9] = WT mice, P56, n = 8, Mean ± SEM

Cc1nc(Nc2ncc(C(=O)Nc3c(C)cccc3Cl)s2)cc(N2CCN(CCO)CC2)n1.O [Dasatinib, N-(2-chloro-6-methylphenyl)-2-[[6-[4-(2-hydroxyethyl)-1-piperazinyl]-2-methyl-4-pyrimidinyl]amino]-5-thiazole carboxamide monohydrate]
SERCA2A protein expression in cardiac tissue (Ptpn11^D61G/+ mice): completely normalized
TnT and TnI expression levels in heart (Ptpn11^D61G/+ mice): returned to those equivalent to vehicle-treated wild type mice
dosage effective in preventing tumor incidence (tumor incidence): ~20 mg/kg
fold lower than therapeutic dose ([1]; 0.1 mg/kg versus therapeutic dose): about 200 fold
dose sufficient to treat CHD-associated cardiac disease ([1]; mice): 0.1 mg/kg
cardiac function after cessation of treatment ([1]; postnatal 0.1 mg/kg/day P10 to P42, discontinued 2 weeks, NS mice, P56, monohydrate): preserved improvement of cardiac function; also recorded: continued preservation of cardiac function
cardiac function (EF and FS) ([1]; postnatal 0.1 mg/kg/day from P10, NS mice, P42, monohydrate): improves cardiac function; also recorded: complete corrective functionality; also recorded: completely restored cardiac functionality
% EF (ejection fraction) [1, 4]: 64.71 ± 1.67 %
% FS (fractional shortening) [1, 4]: 34.92 ± 1.23 %
IVS, d (Intraventricular septum wall thickness, diastole) [1, 4]: 0.72 ± 0.04 mm
IVS, s (Intraventricular septum wall thickness, systole) [1, 4]: 1.18 ± 0.05 mm
LV vol, d (left ventricle volume, diastole) [1, 4]: 65.60 ± 2.44 mm^3
LV vol, s (left ventricle volume, systole) [1, 4]: 24.85 ± 1.68^† mm^3
LVID, d (left ventricular internal dimension, diastole) [1, 4]: 3.93 ± 0.08 mm
LVID, s (left ventricular internal dimension, systole) [1, 4]: 2.60 ± 0.07 mm
LVPW, d (left ventricular posterior wall thickness, diastole) [1, 4]: 0.65 ± 0.03 mm
LVPW, s (left ventricular posterior wall thickness, systole) [1, 4]: 1.19 ± 0.05 mm
% EF (ejection fraction) [1, 5]: 65.89 ± 1.74%
% FS (fractional shortening) [1, 5]: 36.63 ± 1.20%
IVS, d (Intraventricular septum wall thickness, diastole) [1, 5]: 0.69 ± 0.03 mm
IVS, s (Intraventricular septum wall thickness, systole) [1, 5]: 1.19 ± 0.06 mm
LV vol, d (left ventricle volume, diastole) [1, 5]: 64.06 ± 2.65 mm^3
LV vol, s (left ventricle volume, systole) [1, 5]: 23.06 ± 2.21 mm^3
LVID, d (left ventricular internal dimension, diastole) [1, 5]: 3.92 ± 0.09 mm
LVID, s (left ventricular internal dimension, systole) [1, 5]: 2.52 ± 0.10 mm
LVPW, d (left ventricular posterior wall thickness, diastole) [1, 5]: 0.80 ± 0.06 mm
LVPW, s (left ventricular posterior wall thickness, systole) [1, 5]: 1.18 ± 0.05 mm
% EF (ejection fraction) [1, 6]: 60.93 ± 2.06 %
% FS (fractional shortening) [1, 6]: 33.08 ± 1.33 %
IVS, d (Intraventricular septum wall thickness, diastole) [1, 6]: 0.66 ± 0.05 mm
IVS, s (Intraventricular septum wall thickness, systole) [1, 6]: 1.04 ± 0.07 mm
LV vol, d (left ventricle volume, diastole) [1, 6]: 57.35 ± 2.19 mm^3
LV vol, s (left ventricle volume, systole) [1, 6]: 24.67 ± 1.18 mm^3
LVID, d (left ventricular internal dimension, diastole) [1, 6]: 3.63 ± 0.07 mm
LVID, s (left ventricular internal dimension, systole) [1, 6]: 2.50 ± 0.08 mm
LVPW, d (left ventricular posterior wall thickness, diastole) [1, 6]: 0.71 ± 0.03 mm
LVPW, s (left ventricular posterior wall thickness, systole) [1, 6]: 1.09 ± 0.06 mm
% EF (ejection fraction) [1, 7]: 65.70 ± 0.82%
% FS (fractional shortening) [1, 7]: 35.52 ± 0.69%
IVS, d (Intraventricular septum wall thickness, diastole) [1, 7]: 0.71 ± 0.05 mm
IVS, s (Intraventricular septum wall thickness, systole) [1, 7]: 1.13 ± 0.06 mm
LV vol, d (left ventricle volume, diastole) [1, 7]: 65.87 ± 2.78 mm^3
LV vol, s (left ventricle volume, systole) [1, 7]: 22.24 ± 0.63 mm^3
LVID, d (left ventricular internal dimension, diastole) [1, 7]: 3.80 ± 0.11 mm
LVID, s (left ventricular internal dimension, systole) [1, 7]: 2.45 ± 0.05 mm
LVPW, d (left ventricular posterior wall thickness, diastole) [1, 7]: 0.81 ± 0.04 mm
LVPW, s (left ventricular posterior wall thickness, systole) [1, 7]: 1.25 ± 0.07 mm
ERK1/2, Raf-1, MEK1, p38 MAPK and JNK phosphorylation in the heart ([2]; 3-week-old NS mice, dasatinib 0.1-0.5 mg/kg i.p.): neither ERK1/2 phosphorylation (FIGS. 13i-13l), Raf-1, MEK1, p38 MAPK, nor JNK were affected
dose sufficient to significantly inhibit both c-Src and PZR tyrosyl phosphorylation in the heart ([2]; 3-week-old NS mice, i.p., heart isolated after 18 hr): 0.5 mg/kg
fold lower dose than effective chemotherapeutic doses that can inhibit PZR tyrosyl phosphorylation in the heart ([2]; NS mice, chemotherapeutic approx. 1.4-2.0 mg/kg/day): up to 250 fold
PZR tyrosyl phosphorylation in heart tissue ([2]; male Ptpn11D61G/+ mice, i.p., 24 h): effective at reducing
aortic blood pressure and left ventricular pressure ([3]; NS mice, P56): significantly restored
+dp/dt [3, 8]: 7718 ± 498 mmHg/s
Diastolic pressure [3, 8]: 84.0 ± 3.5 mmHg
End diastolic pressure [3, 8]: 11.1 ± 0.7 mmHg
Left ventricle pressure [3, 8]: 127.9 ± 4.5 mmHg
Mean arterial pressure [3, 8]: 96.8 ± 4.2 mmHg
Pulse pressure [3, 8]: 63.7 ± 4.4 mmHg
Systolic pressure [3, 8]: 129.3 ± 6.2 mmHg
−dp/dt [3, 8]: −6189 ± 626 mmHg/s
+dp/dt [3, 9]: 8626 ± 476 mmHg/s
Diastolic pressure [3, 9]: 95.1 ± 4.2 mmHg
End diastolic pressure [3, 9]: 8.7 ± 1.3 mmHg
Left ventricle pressure [3, 9]: 136.5 ± 2.5 mmHg
Mean arterial pressure [3, 9]: 112.1 ± 4.0 mmHg
Pulse pressure [3, 9]: 65.2 ± 4.6 mmHg
Systolic pressure [3, 9]: 146.2 ± 5.1 mmHg
−dp/dt [3, 9]: −6529 ± 847 mmHg/s

— patent publication US10471059B2, “Compositions and methods of using tyrosine kinase inhibitors” (YALE UNIVERSITY, priority 2015, dated 2019)
